From US11534434B2 (Karuna Therapeutics, Inc., priority 2019, dated 2022)
Each block holds one compound with its values, some of them ahead of it.

Experiments:
[1] = Storage stability of the tartrate salt (reanalysis by LC-MS, 1H NMR, 19F NMR); assay type: physicochemical
Protocol: The tartrate salt of the title compound was unstable at test storage conditions. Although the initial NMR spectra were clean, the LCMS purity was about 75%. After storage at 0° C. for six months, the sample was reanalyzed by ^1H-NMR, ^19F-NMR, and LC-MS.

[2] = Human liver microsome stability; assay type: in vitro ADME; conditions: human liver microsomes
Protocol: Human Liver Microsome Stability
Test compounds were dissolved in DMSO to prepare 10 mM stock solutions, diluted to a final test concentration of 100 nM, and incubated at 37° C. with human liver microsomes. Metabolic stability, expressed as a percent of the parent compound remaining, was assessed at 0, 15, 30, 45, and 60 minutes and calculated by comparing the compound's peak area at the time point relative to that at time-0. The half-life (T1/2) was estimated from the slope of the initial linear range of the logarithmic curve of compound remaining (%) vs. time, assuming first-order kinetics. The apparent intrinsic clearance (CLint, in μL/min/pmol, μL/min/mg or μL/min/Mcell) was calculated according to the following formula: CLint=0.693 T1/2*(mg protein/μL or million cells/μL or pmol CYP isoyme/μL).

[3] = molecular target: T1, human M1 mAChR (Homo sapiens, UniProt P11229); assay: Whole-cell functional agonist activity, FLIPR Ca2+ release, U2OS-based human M1 mAChR stable cell line
T1 construct: expressed in transfected cells
T1 sequence (P11229 1-460): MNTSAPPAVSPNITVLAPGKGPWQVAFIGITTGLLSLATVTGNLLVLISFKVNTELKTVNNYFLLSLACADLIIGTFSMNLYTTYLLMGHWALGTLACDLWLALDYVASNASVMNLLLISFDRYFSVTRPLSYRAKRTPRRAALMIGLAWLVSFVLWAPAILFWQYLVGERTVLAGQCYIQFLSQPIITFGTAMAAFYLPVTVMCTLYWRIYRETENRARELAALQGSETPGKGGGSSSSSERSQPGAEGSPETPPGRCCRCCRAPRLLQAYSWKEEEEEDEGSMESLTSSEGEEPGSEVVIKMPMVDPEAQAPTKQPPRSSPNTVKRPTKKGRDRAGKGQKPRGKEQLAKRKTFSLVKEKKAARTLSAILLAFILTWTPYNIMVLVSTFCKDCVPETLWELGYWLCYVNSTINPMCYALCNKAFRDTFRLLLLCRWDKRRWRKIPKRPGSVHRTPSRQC
Source text: (§1) Whole-cell functional agonist activity in cells expressing recombinant human muscarinic receptor subtypes.
(§2) ThermoFisher's FLIPR™ (Fluorescence Imaging Plate Reader) was used to quantify Ca^2+ release, a functional effect associated with Gaq-coupled M1 and M5 mAChRs. CisBio's phospho-ERK (pERK) Thr202/Tyr204 was used to evaluate Gai/o-coupled M2 and M4 mAChRs responses.
(§3) One day before the assay, M1, M3, and M5 cells were thawed out and plated at 10,000 cells/well into black-walled, clear-bottom, Poly-D-lysine coated 384-well microplates and incubated at 37° C. and 5% CO2 in MEME+10% FBS+1× penicillin/streptomycin/glutamine, for the M1 and M3 cell lines and F-12+10% FBS+1× penicillin/streptomycin/glutamine for the M5 cell line. […] The M1 and M5 responses were analyzed using the CBIS data analysis suite (ChemInnovation, CA).
(§4) Percentage activity was calculated using the following formula: % Activity=100%×(mean RFU of test sample mean RFU of vehicle control)/(mean MAX RFU control ligand mean RFU of vehicle control) where RFU is relative fluorescence unit. The M2 and the M4 cells were thawed out one day before the assay and plated at 2,000 and 1,000 cells per well, respectively, in […] of DMEM/F12+10% FBS in ProxiPlate 384-well white-walled, white-bottom tissue culture-treated plates and incubated at 37° C. and 5% CO2 overnight. Before the assay, cells were serum-starved at 37° C. in 5% CO2 for 4 hours by replacing culture media with […] of F12 media with 8 mM HEPES. The pERK assay was run according to assay kit instructions with minor volume modifications outlined below.

[4] = molecular target: T2, human M3 mAChR (Homo sapiens, UniProt P20309); assay: Whole-cell functional agonist activity, FLIPR Ca2+ release, U2OS-based human M3 mAChR stable cell line; conditions: for EC50: agonist, FLIPR Ca2+ release, U2OS human M3 cells; for Emax: top of curve, % activity vs MAX control ligand, FLIPR Ca2+
T2 construct: expressed in transfected cells
Source text: as §1, §2
One day before the assay, M1, M3, and M5 cells were thawed out and plated at 10,000 cells/well into black-walled, clear-bottom, Poly-D-lysine coated 384-well microplates and incubated at 37° C. and 5% CO2 in MEME+10% FBS+1× penicillin/streptomycin/glutamine, for the M1 and M3 cell lines and F-12+10% FBS+1× penicillin/streptomycin/glutamine for the M5 cell line. On the day of the test, the media was aspirated and replaced with […] fluo-4 dye loading buffer (1× dye, 1× additive A and 2.5 mM fresh probenecid in HBSS and 20 mM HEPES) and incubated at 37° C. and 5% CO2 for 45 minutes. After the incubation, cells were removed from the incubator, […] of HBSS and 20 mM HEPES was added for a total volume of […], and the cells were allowed to equilibrate at room temperature for 15 minutes in the dark before compounds were applied, by adding 4× compound solution in […] of HBSS, 0.4% DMSO and 20 mM HEPES buffer (made from a 10 mM compound stock solution in 100% DMSO), and responses were recorded for 2 minutes in FLIPR Tetra after compound administration. The M1 and M5 responses were analyzed using the CBIS data analysis suite (ChemInnovation, CA).
as §4

[5] = molecular target: T3, human M5 mAChR (Homo sapiens, UniProt P08912); assay: Whole-cell functional agonist activity, FLIPR Ca2+ release, CHOK1-based human M5 mAChR stable cell line; conditions: for Emax: top of curve, % activity vs MAX control ligand, FLIPR Ca2+
T3 construct: expressed in transfected cells
T3 sequence (P08912 1-532): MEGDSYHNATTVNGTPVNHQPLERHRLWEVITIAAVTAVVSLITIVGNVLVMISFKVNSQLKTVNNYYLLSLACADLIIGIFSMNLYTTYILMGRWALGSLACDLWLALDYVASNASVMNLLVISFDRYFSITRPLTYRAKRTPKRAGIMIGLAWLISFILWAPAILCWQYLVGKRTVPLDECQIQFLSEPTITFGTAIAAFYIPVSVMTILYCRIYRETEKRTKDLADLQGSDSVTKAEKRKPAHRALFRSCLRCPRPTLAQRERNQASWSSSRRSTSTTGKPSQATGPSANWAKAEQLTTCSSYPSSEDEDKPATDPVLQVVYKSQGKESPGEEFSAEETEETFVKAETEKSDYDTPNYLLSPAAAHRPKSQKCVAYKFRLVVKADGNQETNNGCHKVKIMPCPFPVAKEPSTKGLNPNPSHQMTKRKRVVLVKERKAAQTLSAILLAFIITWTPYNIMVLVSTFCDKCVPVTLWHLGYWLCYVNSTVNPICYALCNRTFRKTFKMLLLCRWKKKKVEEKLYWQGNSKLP
Source text: as §1, §2, §3, §4

[6] = molecular target: T4, human M2 mAChR (Homo sapiens, UniProt P08172); assay: Whole-cell functional agonist activity, phospho-ERK (pERK), CHOK1-based human M2 mAChR stable cell line; conditions: top of curve, % of min (DMSO) and max (10 mM Acetylcholine) responses
T4 construct: expressed in transfected cells
T4 sequence (P08172 1-466): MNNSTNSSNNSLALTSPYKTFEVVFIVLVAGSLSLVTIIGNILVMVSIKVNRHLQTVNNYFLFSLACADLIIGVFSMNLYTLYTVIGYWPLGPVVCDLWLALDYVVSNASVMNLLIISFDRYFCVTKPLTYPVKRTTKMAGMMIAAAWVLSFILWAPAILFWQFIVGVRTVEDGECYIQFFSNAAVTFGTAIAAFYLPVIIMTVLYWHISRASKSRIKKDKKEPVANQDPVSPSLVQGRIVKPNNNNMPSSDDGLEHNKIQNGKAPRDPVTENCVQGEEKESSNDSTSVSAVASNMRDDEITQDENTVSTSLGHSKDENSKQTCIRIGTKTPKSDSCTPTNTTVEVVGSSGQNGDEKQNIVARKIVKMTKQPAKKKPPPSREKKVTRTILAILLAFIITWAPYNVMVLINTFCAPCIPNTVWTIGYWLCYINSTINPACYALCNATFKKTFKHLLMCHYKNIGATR
Protocol: as §1, §2, §4
(§5) Compound addition was carried out by adding 3× compound solution in […] of media with 0.3% DMSO (made from a 10 mM compound stock solution in 100% DMSO) for 5 minutes before the reaction was terminated by adding […] lysis and blocking solution. Cells were left in the lysis solution for 30 minutes before […] of antibody (Eu and d2) solution was added for an additional 2-hour incubation while protected from light. The plates were then read on laser Pherastar using the TR-FRET protocol.

[7] = molecular target: T5, human M4 mAChR (Homo sapiens, UniProt P08173); assay: Whole-cell functional agonist activity, phospho-ERK (pERK), CHOK1-based human M4 mAChR stable cell line; conditions: top of curve, % of min (DMSO) and max (10 mM Acetylcholine) responses
T5 construct: expressed in transfected cells
T5 sequence (P08173 1-479): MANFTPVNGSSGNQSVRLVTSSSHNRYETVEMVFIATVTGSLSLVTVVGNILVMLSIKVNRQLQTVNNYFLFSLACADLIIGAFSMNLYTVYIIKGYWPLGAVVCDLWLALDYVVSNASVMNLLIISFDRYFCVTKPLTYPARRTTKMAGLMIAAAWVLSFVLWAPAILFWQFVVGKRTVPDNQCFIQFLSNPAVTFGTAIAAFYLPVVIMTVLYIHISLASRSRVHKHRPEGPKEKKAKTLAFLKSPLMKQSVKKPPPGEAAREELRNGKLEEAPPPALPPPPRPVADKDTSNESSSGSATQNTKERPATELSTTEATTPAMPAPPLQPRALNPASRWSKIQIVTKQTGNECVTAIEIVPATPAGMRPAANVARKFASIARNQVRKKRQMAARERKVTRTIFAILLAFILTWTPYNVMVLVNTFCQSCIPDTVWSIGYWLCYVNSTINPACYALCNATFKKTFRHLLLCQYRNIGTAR
Protocol: as §1, §2, §4, §5

[8] = Pharmacokinetics following single oral dose administration in male Sprague-Dawley rats; assay type: in vivo; conditions: rat, oral administration of tartrate salts 25 mg/kg
Protocol: In-Vivo Assessment of Pharmacokinetics Following Oral Dose Administration in Male Sprague-Dawley Rats
Blood samples were collected from all animals in Groups 1-3 at 0.25, 0.5, 1, 2, 4, 6, 8, 12, and 24 hours post-dose, with each animal, bled at all time points. […] The slopes of the elimination phase of the concentrations vs. time curve used to calculate the T1/2 were determined by log-linear regression.
PK analyses were performed and validated using Phoenix® WinNonlin® version 8.0.

[9] = tested on: muscarinic acetylcholine receptor (mAChRs) human M1-M5 (hM1-hM5); conditions: pERK, CHO cells
Source text: In-Vitro Radioligand Binding Assays
The Flp-In™ cell lines are designed to generate stable cell lines that express a protein of interest from an Flp-In™ expression vector.
An extracellular signal-related kinase (ERK1/2 or p42/44) is a kinase in the mitogen-activated protein kinase (MAPK) family. Phosphorylation of ERK (pERK) can be used as a common endpoint measurement for the activation of many classes of G protein-coupled receptors (GPCR) and beta-arrestin linked signaling.
For the pERK assay, cells were serum-starved for 5 to 6 hours. Curves were normalized to the maximum response from the fetal bovine serum (FBS) medium corresponding to a 5-minute stimulation. A 5-minute incubation with the agonists was selected for the dose-response pERK assays (n=2).
Nonlinear regression curves were calculated per the three parameters method with no constraints.

T2 sequence (P20309 whole entry): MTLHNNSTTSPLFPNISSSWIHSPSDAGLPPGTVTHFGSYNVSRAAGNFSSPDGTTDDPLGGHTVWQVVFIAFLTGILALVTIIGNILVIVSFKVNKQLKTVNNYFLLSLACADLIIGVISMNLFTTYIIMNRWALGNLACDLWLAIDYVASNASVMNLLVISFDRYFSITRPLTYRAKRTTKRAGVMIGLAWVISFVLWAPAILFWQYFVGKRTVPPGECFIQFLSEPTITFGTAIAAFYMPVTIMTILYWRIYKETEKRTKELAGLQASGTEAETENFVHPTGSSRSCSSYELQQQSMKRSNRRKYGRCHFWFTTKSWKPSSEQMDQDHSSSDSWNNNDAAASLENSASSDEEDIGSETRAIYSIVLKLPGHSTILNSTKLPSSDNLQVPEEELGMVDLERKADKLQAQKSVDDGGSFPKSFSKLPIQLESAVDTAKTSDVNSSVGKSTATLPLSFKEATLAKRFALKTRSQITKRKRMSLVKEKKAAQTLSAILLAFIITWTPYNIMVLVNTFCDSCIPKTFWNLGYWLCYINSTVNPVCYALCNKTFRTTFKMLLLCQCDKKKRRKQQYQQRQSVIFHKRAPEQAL

Compound: FC(F)(F)CCCCCOc1nsnc1C1=CCCN(C(F)(F)F)C1 [Example 2, 3-((6,6,6-Trifluorohexyl)oxy)-4-(1-(trifluoromethyl)-1,2,5,6-tetrahydropyridin-3-yl)-1,2,5-thiadiazole]
- storage stability of tartrate salt ([1]; six months of storage at 0° C., LC-MS, 1H NMR, 19F NMR): none of the title compound remained in the sample

Compound: [2H]C([2H])([2H])C([2H])([2H])C([2H])([2H])C([2H])([2H])C([2H])([2H])C([2H])([2H])Oc1nsnc1C1=CCCN(C)C1 [Xanomeline-d13, 3-((Hexyl-1,1,2,2,3,3,4,4,5,5,6,6,6-d13)oxy)-4-(1-methyl-1,2,5,6-tetrahydropyridin-3-yl)-1,2,5-thiadiazole]
- agonist profile at hM3, hM5, hM2 [9]: modestly potent partial agonists at mAChRs hM3>hM5>hM2
- agonist profile at hM4, hM1 [9]: efficacious partial agonist at hM4>hM1

Compound: [2H]C([2H])([2H])N1CCC=C(c2nsnc2OC([2H])([2H])C([2H])([2H])C([2H])([2H])C([2H])([2H])C([2H])([2H])C([2H])([2H])[2H])C1 [Xanomeline-d16, 3-((hexyl-1,1,2,2,3,3,4,4,5,5,6,6,6-d13)oxy)-4-(1-(methyl-d3)-1,2,5,6-tetrahydropyridin-3-yl)-1,2,5-thiadiazole]
- agonist profile at hM3, hM5, hM2 [9]: modestly potent partial agonists at mAChRs hM3>hM5>hM2
- agonist profile at hM4, hM1 [9]: efficacious partial agonist at hM4>hM1

Continued, in another order:

- stability of tartrate salt preparation by LCMS ([1]; after 2 days): turned messy
Compound: CCCCCCOc1nsnc1C1=CCCN(C(F)(F)F)C1 [Example 3, 3-(Hexyloxy)-4-(1-(trifluoromethyl)-1,2,5,6-tetrahydropyridin-3-yl)-1,2,5-thiadiazole]

- microsomal CLint at 100 nM ([2]; apparent intrinsic clearance, no unit in table (μL/min/pmol, μL/min/mg or μL/min/Mcell)): 701 µL/min/mg
- Parent at 60 min (%) ([2]; 100 nM, 37° C., tartrate salt): 1%
- half-life at 100 nM ([2]; 100 nM, 37° C., tartrate salt): 10 min
- EC50 ([3]; agonist, FLIPR Ca2+ release, U2OS human M1 cells): 4.2 nM
- Emax ([3]; top of curve, % activity vs MAX control ligand, FLIPR Ca2+): 90%
- EC50 [4]: > 10000 nM
- Emax [4]: 9%
- EC50 ([5]; agonist, FLIPR Ca2+ release, CHOK1 human M5 cells): 26.5 nM
- Emax [5]: 87%
Compound: CCCC(F)(F)CCOc1nsnc1C1=CCCN(C)C1 [Example 10, 3-((3,3-Difluorohexyl)oxy)-4-(1-methyl-1,2,5,6-tetrahydropyridin-3-yl)-1,2,5-thiadiazole]

- M2 Top (%) [6]: 1%
- EC50 [4]: > 10000 nM
- Emax [4]: 17%
- M4 Top (%) [7]: 100%
- Emax [5]: 92%
Compound: CCCCCCOc1nsnc1C1=CCCN(C)C1 [Xanomeline, 3-(hexyloxy)-4-(1-methyl-1,2,5,6-tetrahydropyridin-3-yl)-1,2,5-thiadiazole, reference compound]
- plasma levels compared between treatments [8]: about mid-way between the levels of xanomeline-d16 and xanomeline-d13
